Structures are written as SMILES.

In data set [1] the test system is HeLa cells. Put plainly: NIR epifluorescence microscopy of HeLa cells (necrotic cell labelling, simultaneous staining and fixing). Conditions: 150 μM complex and 3 μM propidium iodide together, UV light (377 nm) 5 minutes. The data set is classed as cell-based, Human. As to the method: Cells were seeded in a 8-well Lab Tek Chamber coverglass (Nunc, Dutsher S.A., Brumath, France) at a density of 6×10^4 cells/well and cultured at 37° C. in 5% humidified CO2 atmosphere.
The continued incubation enabled the internalization of the complexes.
All of the previously mentioned incubated HeLa cells were then washed with fresh OPTI-MEM® media and were incubated with 3 μM propidium iodide for 5 minutes. Propidium iodide is a commercially available stain (emitting in the visible range) for necrotic cells, and was used to confirm cell necrosis.
i. 377 nm with 50 nm band-pass filter with 50 nm bandwidth for the excitation and 805 nm long-pass filter 805 nm or 996 nm band-pass filter with 70 nm bandwidth for YbIII emission in the NIR range.
ii. […] for the excitation and 805 nm long-pass filter 805 nm or 996 nm band-pass filter with 70 nm bandwidth for YbIII emission in the NIR range. […]

The nature of data set [2]: Photostability stress tests. The format is physicochemical. As to the method:
Photostability stress tests of Yb^3+[Zn(II)MCpyzHA] (Yb λem=980 nm) and Nd^3+[Zn(II)MCpyzHA] (Nd λem=1064 nm) and the commercially available dye for necrotic cells (Propidium Iodide) were performed. The complexes (150 μM) or dye (50 μM) were dissolved in water and the complexes were also dissolved in OPTI-MEM® media. The MC solutions were exposed to 5 hours of UV radiation (377 nm). The propidium iodide solution was exposed to 5 hours of UV radiation (530 nm).

In data set [3] the test system is HeLa cells. Description: NIR epifluorescence microscopy of HeLa cells (necrotic cell labelling, simultaneous staining and fixing). The data set is classed as cell-based, Human.
A short description of data set [4]: Photophysical properties of the metallacrowns in solid state and in aqueous solutions. The format is physicochemical. The note with it: room temperature, excitation at 370 nm. As to the method: FIG. 4. illustrates the normalized excitation (λem(Nd^3+)=1070 nm, λem(Yb^3+)=980 nm) and emission (λex=370 nm) spectra of Yb^3+[Zn(II)MCpyzHA], at the top, and Nd^3+[Zn(II)MCpyzHA] MCs, at the bottom, (solid or 200 μM solutions, room temperature).

Data set [5] in a line: Photophysical parameters in OPTI-MEM media, cell supernatant and HeLa cells. The data set is classed as physicochemical. As to the method:
The Yb^3+[Zn(II)MCpyzHA] complexes were dissolved in OPTI-MEM® medium with 2% SVF (without cells) and were incorporated in HeLa cells, both with and without exposure to UV light. The results in are shown in FIG. 20, (A) (corrected and normalized excitation) and FIG. 20, (B) (corrected and normalized emission). […] The present inventors developed instrumentation in order to collect photophysical properties of MCs inside of cancer cells. They measured quantitative photophysical parameters (quantum yields and life times) inside of the cells with equipment which is usually adapted for measuring of (quantum yields and life times) in solids or in concentrated solutions.
The Yb^3+[Zn(II)MCpyzHA] complexes were collected together with cell supernatant (SN) and with HeLa cells treated with N-acetyl cysteine, both with and without exposure to UV light. For SN1 and cells1, incubation with NAC took place for 30 minutes, then the cells were washed, and incubation with Yb^3+[Zn(II)MCpyzHA] took place for 15 minutes. For SN2 and cells2, incubation with Yb^3+[Zn(II)MCpyzHA] took place for 15 minutes, and then NAC was added and incubation with NAC took place for 30 minutes. The results in are shown in FIGS. 20C (corrected and normalized excitation) and 20D (corrected and normalized emission). […]

Data set [6] is described as follows: Photophysical properties of the metallacrowns in solid state and in aqueous solutions. The data set is classed as physicochemical.
[7] abbreviates: Table 3, No UV: After 5 h incubation with HeLa cells without illumination.
The mark [8] stands for this setting: Table 3, UV: After 5 h incubation with HeLa cells with UV illumination (during 8 min).

As to `CC[N+](C)(CC)CCC[n+]1c(-c2ccccc2)c2cc(N)ccc2c2ccc(N)cc21.[I-].[I-]` [propidium iodide, reference compound], the “Incubation time after which emission was observed in cells after UV illumination” value with HeLa cells [1] was 15 min. For the same compound, in data set [2] (50 μM in water, 5 hours of irradiation at 530 nm), the “Photostability (fluorescence intensity)” value is recorded as “dropped half of its initial intensity”. For the same compound, in the data set with HeLa cells [3] (150 μM complex and 3 μM propidium iodide together, UV light (377 nm) 5 minutes), the “Specificity of the dye for cell state” value was “specific for dead and apoptotic cells”.
As for `O=C([N-][O-])c1cnccn1.O=C([N-][O-])c1cnccn1.O=C([N-][O-])c1cnccn1.O=C([N-][O-])c1cnccn1.O=C([N-][O-])c1cnccn1.O=C([N-][O-])c1cnccn1.O=C([N-][O-])c1cnccn1.O=C([N-][O-])c1cnccn1.O=C([N-][O-])c1cnccn1.O=C([N-][O-])c1cnccn1.O=C([N-][O-])c1cnccn1.O=C([N-][O-])c1cnccn1.O=C([N-][O-])c1cnccn1.O=C([N-][O-])c1cnccn1.O=C([N-][O-])c1cnccn1.O=C([N-][O-])c1cnccn1.O=S(=O)([O-])C(F)(F)F.O=S(=O)([O-])C(F)(F)F.O=S(=O)([O-])C(F)(F)F.[Nd+3].[Zn+2].[Zn+2].[Zn+2].[Zn+2].[Zn+2].[Zn+2].[Zn+2].[Zn+2].[Zn+2].[Zn+2].[Zn+2].[Zn+2].[Zn+2].[Zn+2].[Zn+2].[Zn+2].c1ccncc1.c1ccncc1.c1ccncc1.c1ccncc1.c1ccncc1.c1ccncc1.c1ccncc1.c1ccncc1` [Nd^3+[Zn(II)MCpyzHA]], the “Q (quantum yield), D2O” value in data set [4] (200 μM in D2O) is given as 6.17(9) · 10^−2%. Further, the “Q (quantum yield), H2O” value in data set [4] (200 μM in H2O) is 7.7(1) · 10^−3%. In data set [4] (solid state), the “Q (quantum yield), Solid” value is recorded as 0.444(9) %. Further, the Photostability result in data set [2] (150 μM in water and OPTI-MEM media, 5 hours of irradiation with 377 nm light) is on record as “fully photostable”. Besides, in data set [5] (Table 3, In HeLa cells), the τ2 is 0.808(8) μs and the “τ2 contribution (longer component)” value amounted to 100%. Also, in data set [5] (setting [7]), the Quantum yield was 7.50(5) · 10^−3%, the τ1 is reported as 0.261(1) μs, the τ1 contribution amounted to 85% and the τ2 is given as 0.98(1) μs. Further, in data set [5] (setting [7]), the τ2 contribution was determined as 15%. In addition, in data set [5] (Table 3, OptiMEM), the Quantum yield is 7.33(1) · 10^−3%, the τ1 was 0.256(6) μs, the τ1 contribution worked out at 90% and the τ2 is recorded as 1.1(1) μs. The τ2 contribution in data set [5] (Table 3, OptiMEM) is reported as 10%. For the same compound, in data set [5] (Table 3, OptiMEM-UV 1 h 30 min), the Quantum yield is 7.7(1) · 10^−3%, the τ1 is 0.352(2) μs, the τ1 contribution is 67% and the τ2 was 0.874(7) μs. In data set [5] (Table 3, OptiMEM-UV 1 h 30 min), the τ2 contribution is given as 33%. In data set [5] (setting [8]), the Quantum yield was 6.2(1) · 10^−3%, the τ1 is reported as 0.376(3) μs, the τ1 contribution came to 60% and the τ2 is recorded as 0.83(2) μs. In data set [5] (setting [8]), this compound registered a τ2 contribution of 40%. Also, in data set [5] (with/without exposure to UV light), the “Change of luminescent properties in media, cell supernatant or HeLa cells” value was “did not change in OPTI-MEM® media or inside of the HeLa cells”. Moreover, in data set [6] (200 μM in D2O, room temperature, excitation at 355 nm), the “τ (luminescence lifetime), D2O” value is reported as 1.29(1) μs. Also, the “τ (luminescence lifetime), H2O” value in data set [6] (200 μM in H2O, room temperature, excitation at 355 nm) was 0.214(4) μs. Moreover, in data set [6] (calculated from lifetimes, estimated error ±0.2), the “q (number of coordinated water molecules)” value is 0.1. Further, the “τ (luminescence lifetime), Solid” value in data set [6] (solid state, room temperature, excitation at 355 nm) is 1.71(1) μs. In addition, in the data set with HeLa cells [3] (150 μM, 15 minutes, UV light (377 nm) 8 minutes, further 1 hour), the “Fixing and staining of HeLa cells” value was “fixed and stained”.

These data come from patent publication US10359430B2, “Selective near-infrared optical imaging of necrotic cells and simultaneous cell fixing and counter staining with metallacrown complexes” (THE REGENTS OF THE UNIVERSITY OF MICHIGAN, priority 2015, dated 2019).
